The assay relates to c-KIT 1 (DNA, G4) AGGGAGGGCGCTGGGAGGAGGG
The assay can be described thus: CD melting at 265 nm. The settings on record: 10 mM KCl, 90 mM LiCl; 10 mM Tris-HCl, pH 7.2; 2 µM DNA, 3 eq ligand; 1 °C/min.

For the molecule `CC[n+]1c(/C=C/c2ccc3c(c2)c2ccccc2n3CCCCn2ccnc2)sc2ccccc21`, the ΔTm turned out to be 8.4 °C.
For `CCn1c2ccccc2c2cc(/C=C/c3sc4ccccc4[n+]3CC)ccc21` the value was 5.9 °C.
Then `CC[n+]1c(/C=C/c2ccc3c(c2)c2ccccc2n3CCCCn2cncn2)sc2ccccc21`, with 5.4 °C.
